Measurements: PubChem BioAssay (NCI)
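All cell lines were grown in 96-well plates and treated with compound for 48 hours. Definition used: TGI = concentration required for complete inhibition of growth.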

Key:
Test in all cases: growth of human tumour cells (NCI), 48 h
MOLT-4 leukemia = test system: MOLT-4 leukemia
OVCAR-3 ovarian = test system: OVCAR-3 ovarian
SF-295 CNS = test system: SF-295 CNS
HCC-2998 colon = test system: HCC-2998 colon
ACHN renal = test system: ACHN renal
OVCAR-5 ovarian = test system: OVCAR-5 ovarian
RPMI-8226 leukemia = test system: RPMI-8226 leukemia
EKVX NSCLC = test system: EKVX NSCLC
DMS 273 small cell lung = test system: DMS 273 small cell lung
KM12 colon = test system: KM12 colon
HOP-92 NSCLC = test system: HOP-92 NSCLC
OVCAR-4 ovarian = test system: OVCAR-4 ovarian
CCRF-CEM leukemia = test system: CCRF-CEM leukemia
SNB-75 CNS = test system: SNB-75 CNS
LXFL 529 NSCLC = test system: LXFL 529 NSCLC
HT29 colon = test system: HT29 colon
SK-MEL-28 melanoma = test system: SK-MEL-28 melanoma
M14 melanoma = test system: M14 melanoma
COLO 205 colon = test system: COLO 205 colon
SF-539 CNS = test system: SF-539 CNS
UO-31 renal = test system: UO-31 renal
HCT-116 colon = test system: HCT-116 colon
SK-OV-3 ovarian = test system: SK-OV-3 ovarian
OVCAR-8 ovarian = test system: OVCAR-8 ovarian
IGROV1 ovarian = test system: IGROV1 ovarian
A498 renal = test system: A498 renal
M19-MEL melanoma = test system: M19-MEL melanoma
RXF 393 renal = test system: RXF 393 renal
XF 498 CNS = test system: XF 498 CNS
CAKI-1 renal = test system: CAKI-1 renal
HOP-62 NSCLC = test system: HOP-62 NSCLC
KM20L2 colon = test system: KM20L2 colon
UACC-257 melanoma = test system: UACC-257 melanoma
SN12C renal = test system: SN12C renal
SF-268 CNS = test system: SF-268 CNS
K-562 leukemia = test system: K-562 leukemia
786-0 renal = test system: 786-0 renal
SW-620 colon = test system: SW-620 colon
NCI-H460 lung = test system: NCI-H460 lung
SK-MEL-2 melanoma = test system: SK-MEL-2 melanoma
NCI-H23 lung = test system: NCI-H23 lung
HCT-15 colon = test system: HCT-15 colon
MALME-3M melanoma = test system: MALME-3M melanoma
SNB-19 CNS = test system: SNB-19 CNS
SNB-78 CNS = test system: SNB-78 CNS
NCI-H522 lung = test system: NCI-H522 lung
U251 CNS = test system: U251 CNS
DMS 114 small cell lung = test system: DMS 114 small cell lung
UACC-62 melanoma = test system: UACC-62 melanoma
A549 NSCLC = test system: A549 NSCLC
DLD-1 colon = test system: DLD-1 colon
NCI-H226 lung = test system: NCI-H226 lung
TK-10 renal = test system: TK-10 renal

N=c1oc2c(O)c(O)ccc2cc1C(N)=O
TGI (MOLT-4 leukemia): 75.2 µM | TGI (OVCAR-3 ovarian): > 100 µM | TGI (SF-295 CNS): 94.5 µM | TGI (HCC-2998 colon): > 100 µM | TGI (ACHN renal): > 100 µM | TGI (OVCAR-5 ovarian): > 100 µM | TGI (RPMI-8226 leukemia): > 100 µM | TGI (EKVX NSCLC): > 100 µM | TGI (DMS 273 small cell lung): > 100 µM | TGI (KM12 colon): > 100 µM | TGI (HOP-92 NSCLC): > 100 µM | TGI (OVCAR-4 ovarian): 31.7 µM | TGI (CCRF-CEM leukemia): 47 µM | TGI (SNB-75 CNS): 97.6 µM | TGI (LXFL 529 NSCLC): 93.1 µM | TGI (HT29 colon): > 100 µM | TGI (SK-MEL-28 melanoma): > 100 µM | TGI (M14 melanoma): > 100 µM | TGI (COLO 205 colon): > 100 µM | TGI (SF-539 CNS): > 100 µM | TGI (UO-31 renal): > 100 µM | TGI (HCT-116 colon): > 100 µM | TGI (SK-OV-3 ovarian): > 100 µM | TGI (OVCAR-8 ovarian): 50.9 µM | TGI (IGROV1 ovarian): > 100 µM | TGI (A498 renal): > 100 µM | TGI (M19-MEL melanoma): 44.8 µM | TGI (RXF 393 renal): > 100 µM | TGI (XF 498 CNS): 53 µM | TGI (CAKI-1 renal): > 100 µM | TGI (HOP-62 NSCLC): > 100 µM | TGI (KM20L2 colon): > 100 µM | TGI (UACC-257 melanoma): > 100 µM | TGI (SN12C renal): > 100 µM | TGI (SF-268 CNS): > 100 µM | TGI (K-562 leukemia): 36.4 µM | TGI (786-0 renal): 25.3 µM | TGI (SW-620 colon): 83.4 µM | TGI (NCI-H460 lung): > 100 µM | TGI (SK-MEL-2 melanoma): > 100 µM | TGI (NCI-H23 lung): > 100 µM | TGI (HCT-15 colon): > 100 µM | TGI (MALME-3M melanoma): > 100 µM | TGI (SNB-19 CNS): > 100 µM | TGI (SNB-78 CNS): > 100 µM | TGI (NCI-H522 lung): > 100 µM | TGI (U251 CNS): > 100 µM | TGI (DMS 114 small cell lung): > 100 µM | TGI (UACC-62 melanoma): > 100 µM | TGI (A549 NSCLC): > 100 µM | TGI (DLD-1 colon): > 100 µM | TGI (NCI-H226 lung): > 100 µM | TGI (TK-10 renal): > 100 µM
